{"source": "patent US20220193063A1", "about": "“METABOLITES OF GLP1R AGONISTS” (Pfizer Inc., priority 2020, published 2022)", "key": {"[1]": {"tested_on": "Male CD-1 mouse hepatocytes", "test": "In vitro metabolism of Compound 1 in mouse cryopreserved hepatocytes", "type": "in vitro ADME", "settings": "10 μM Compound 1, 7.5×10^5 cells/mL, 1 and 4 hrs composite sample, HPLC/UV/MS", "method": "(§1) Male CD-1 mouse hepatocytes (lot YHL), male Wistar-Han rat hepatocytes (Celsis; product number: M000065; lot: SLA), female New Zealand rabbit hepatocytes (lot 1510147), male cryopreserved cynomolgus monkey hepatocytes (Celsis; product number: M00305; lot: DNB) and mixed-gender cryopreserved human hepatocytes (Bioreclamation; product number: S01988; lot: DCM) were obtained for the hepatocyte in-vitro assessments.\n(§2) At time 0 hrs 550 μL aliquots were removed from incubations and quenched with 5 volumes of ACN containing 0.1% formic acid. At 1 and 4 hrs, 275 μL aliquots were removed and quenched as above; these were combined in the same tube to prepare a composite sample. For all hepatocyte experiments, samples were processed by centrifugation at 1900×g for 5 minutes, and then the supernatant was transferred to clean glass tubes and evaporated to dryness under a stream of N2 using a Turbovap at 37° C. Sample residues were reconstituted in mobile phase prior to analysis by HPLC/UV/MS^n.\n(§3) Samples were analyzed by HPLC/UV/MS^n using a Thermo Orbitrap Elite mass spectrometer in conjunction with a Thermo Open Accela UHPLC system. A 3.0×150 mm, 2.5 μm Acquity CSH C18 HPLC column (Waters) was heated to 45° C. for separation of analytes. The mobile phase was a gradient of A): water containing 0.1% formic acid, and B): acetonitrile. The flow rate was 450 μL/min, and the following gradient program was utilized: […]\n(§4) UV absorbance was monitored with a photo-diode array detector from 220-450 nm. The mass spectrometer was operated in positive-ion mode with a HESI ion source at a potential of 3.0 kV, and capillary and source heater temperatures of 380 and 300° C., respectively. Sheath, auxiliary, and sweep gas flows were set to 45, 10, and 2 units, respectively. Full scan mass spectra were acquired over the range 120-1200 m/z at a resolving power of 30,000 (specified at m/z 400). Data-dependent MS^n spectra were acquired in an automated fashion at 15,000 resolving power using CID and HCD fragmentation with normalized collision energy settings of 28 and 65 V, respectively.\n(§5) Metabolites were characterized by comparisons of mass spectral fragmentation patterns with that of a Compound 1 standard. All HPLC/UV/MS^n data were processed using Xcalibur v. 2.2, and integrated UV peak areas were subjected to weighted UV binning procedures utilizing an Excel template."}, "[2]": {"tested_on": "male Wistar-Han rat hepatocytes", "test": "In vitro metabolism of Compound 1 in rat cryopreserved hepatocytes", "type": "in vitro ADME", "settings": "10 μM Compound 1, 7.5×10^5 cells/mL, 1 and 4 hrs composite sample, HPLC/UV/MS", "method": "as §1, §2, §3, §4, §5"}, "[3]": {"tested_on": "female New Zealand rabbit hepatocytes", "test": "In vitro metabolism of Compound 1 in rabbit cryopreserved hepatocytes", "type": "in vitro ADME", "settings": "10 μM Compound 1, 7.5×10^5 cells/mL, 1 and 4 hrs composite sample, HPLC/UV/MS", "method": "as §1, §2, §3, §4, §5"}, "[4]": {"tested_on": "male cryopreserved cynomolgus monkey hepatocytes", "test": "In vitro metabolism of Compound 1 in monkey cryopreserved hepatocytes", "type": "in vitro ADME", "settings": "10 μM Compound 1, 7.5×10^5 cells/mL, 1 and 4 hrs composite sample, HPLC/UV/MS", "method": "as §1, §2, §3, §4, §5"}, "[5]": {"tested_on": "mixed-gender cryopreserved human hepatocytes", "test": "In vitro metabolism of Compound 1 in human cryopreserved hepatocytes", "type": "in vitro ADME", "settings": "10 μM Compound 1, 7.5×10^5 cells/mL, 1 and 4 hrs composite sample, HPLC/UV/MS", "method": "as §1, §2, §3, §4, §5"}, "[6]": {"tested_on": "human co-cultured hepatocytes (Hepatopack)", "test": "In vitro metabolism of Compound 1 in human micropatterned co-cultured hepatocytes (Hepatopack)", "type": "in vitro ADME", "settings": "Compound 1 tris salt 20 μM, human MPCC hepatocytes, 0, 2 and 7 days", "text": "Micro-patterned co-cultured (MPCC) hepatocyte 24-well plates containing human donors (16 wells each) were provided by Ascendance Biotechnology (formerly Hepregen Corp. (Medford, Mass.). [see Wang W W W, Khetani S R, Krzyzewski S, et al. Assessment of a Micropatterned Hepatocyte Coculture System to Generate Major Human Excretory and Circulating Drug Metabolites. Drug Metab Dispos 2010; 38(10):1900-51 The MPCCs were created at Ascendance Biotechnology and maintained in serum containing medium for 5-6 days to allow for stabilization of the co-cultures prior to shipment. A mixed-gender cryopreserved pool of 10 human donors (X008001-P; lot YFA) was used to seed the plates and was purchased from BioreclamationlVT (Westbury, N.Y.). MPCC hepatocytes are plated with fibroblasts in a 1:3 ratio with ˜25,000 hepatocytes/well in a 24-well plate. 24-Well MPCC plates were shipped to Pfizer, fresh medium (400 μL/well) was applied and cultures were kept at 37° C. with […] and 95% relative humidity for two days. Micropatterned co-cultures containing pooled hepatocytes were allowed 7 days to fully stabilize with respect to liver-specific functions. […] At respective time points (0, 2, and 7 days), the culture medium was removed and mixed with 4 volumes of ACN, then stored frozen at −40° C. until samples could be analyzed. Samples were subsequently processed by the addition of 2.5 mL of 1:1 ACN:MeOH containing 0.1% formic acid. After vortexing, the samples were centrifuged at 1900×g for 5 min, then the supernatant was transferred to 15 mL conical tubes and evaporated under N2 using a Turbovap set at 37° C. The residues were reconstituted in mobile phase (5:95 v:v ACN:0.1% aqueous formic acid) prior to analysis by HPLC/UV/MS^n.\nas §3\nUV absorbance was monitored with a photo-diode array detector from 220-450 nm. The mass spectrometer was operated in positive-ion mode with a HESI ion source at a potential of 3.0 kV, and capillary and source heater temperatures of 380 and 300° C., respectively. Sheath, auxiliary, and sweep gas flows were set to 45, 10, and 2 units, respectively. Full scan mass spectra were acquired over the range 120-1200 m/z at a resolving power of 30,000 (specified at m/z 400). […]"}, "[7]": {"test": "Circulating metabolites of Compound 1 in rat plasma following a 1.0 mg/kg IV bolus dose", "type": "in vivo", "settings": "1.0 mg/kg IV bolus dose of Compound 1, pooled plasma 0.033-24 hrs, male rats", "method": "(§6) Plasma and bile samples were obtained from a bile duct cannulated rat experiment (Study PK-0111) in which a 1.0 mg/kg IV bolus dose was administered to fed male rats (N=3). No control plasma was available from this experiment.\nClin Pharmacol Ther 1981; 29(3):408-13]. The entire volume of each replicate Hamilton pool was combined to create a single pooled sample (576 μL) for analysis.\n(§7) Pooled plasma and bile samples were extracted with ACN containing 0.1% formic acid, and after centrifugation at 1900×g, the supernatant was transferred to clean tubes and evaporated under N2 in a Turbovap set at 37° C. Residues were reconstituted in mobile phase (5:95 v:v ACN:0.1% aqueous formic acid) prior to analysis by HPLC/UV/MS^n.\nas §3, §4, §5"}, "[8]": {"test": "Metabolites of Compound 1 in rat bile following a 1.0 mg/kg IV bolus dose (bile duct cannulated rat)", "type": "in vivo", "settings": "1.0 mg/kg IV bolus dose of Compound 1, pooled bile 0-24 hrs, bile duct cannulated male rats", "method": "as §6\nBile samples (0-3, 3-7, and 7-24 hrs) from individual animals were pooled in proportion to the amount collect in each interval. Then 0.5 mL of each individual pool was combined to prepare a composite sample for analysis.\nas §7, §3, §4, §5"}, "[9]": {"target": "human GLP-1R (Homo sapiens, UniProt P43220, L260F)", "sequence (P43220 24-463 L260F)": "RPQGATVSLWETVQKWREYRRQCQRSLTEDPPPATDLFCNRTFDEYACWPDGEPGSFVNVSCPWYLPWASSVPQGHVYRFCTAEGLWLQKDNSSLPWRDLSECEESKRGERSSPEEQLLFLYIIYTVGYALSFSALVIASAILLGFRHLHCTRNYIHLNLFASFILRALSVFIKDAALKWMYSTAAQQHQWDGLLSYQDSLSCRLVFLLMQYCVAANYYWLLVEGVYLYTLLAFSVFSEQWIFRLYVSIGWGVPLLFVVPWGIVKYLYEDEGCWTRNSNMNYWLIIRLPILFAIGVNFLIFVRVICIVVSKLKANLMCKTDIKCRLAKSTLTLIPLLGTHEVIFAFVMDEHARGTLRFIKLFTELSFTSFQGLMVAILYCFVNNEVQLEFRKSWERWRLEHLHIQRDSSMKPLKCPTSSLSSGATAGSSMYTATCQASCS", "test": "CHO GLP-1R Clone C6 - Assay 2 (HTRF cAMP agonist assay, low receptor density)", "quoted_text": "GLP-1R-mediated agonist activity was determined with a cell-based functional assay utilizing an HTRF (Homogeneous Time-Resolved Fluorescence) cAMP detection kit (cAMP HI Range Assay Kit; Cis Bio cat #62AM6PEJ) that measures cAMP levels in the cell. The method is a competitive immunoassay between native cAMP produced by the cells and exogenous cAMP labeled with the dye d2. The tracer binding is visualized by a mAb anti-cAMP labeled with Cryptate. The specific signal (i.e. energy transfer) is inversely proportional to the concentration of cAMP in either a standard or an experimental sample. […]\nAfter 48 hours, the growth media was removed from the assay plate wells, and the cells were treated with 20 μL of the serially diluted compound in assay buffer for 30 minutes at 37° C. in a humidified environment (95% O2, 5% CO2). […] The plates were then incubated at room temperature and after 60 minutes, changes in the HTRF signal were read with an Envision 2104 multi-label plate reader using excitation of 330 nm and emissions of 615 and 665 nm. Raw data were converted to nM cAMP by interpolation from a cAMP standard curve (as described in the manufacturer's assay protocol) and the percent effect was determined relative to a saturating concentration of the full agonist GLP-1 (1 μM) included on each plate. […]"}}, "data": [{"smiles": "C[C@]1(c2ccc(Cl)cn2)Oc2cccc(C3CCN(Cc4nc5ccc(C(=O)O[C@@H]6O[C@H](C(=O)O)[C@@H](O)[C@H](O)[C@H]6O)cc5n4C[C@@H]4CCO4)CC3)c2O1", "note": "[Metabolite 751b]", "values": [{"measurement": "metabolite of Compound 1 observed in mouse hepatocyte incubations", "setting": "[1]", "value": "observed"}, {"measurement": "metabolite of Compound 1 observed in rat hepatocyte incubations", "setting": "[2]", "value": "observed"}, {"measurement": "metabolite of Compound 1 observed in rabbit hepatocyte incubations", "setting": "[3]", "value": "observed"}, {"measurement": "metabolite of Compound 1 observed in monkey hepatocyte incubations", "setting": "[4]", "value": "observed"}, {"measurement": "metabolite of Compound 1 observed in human hepatocyte incubations", "setting": "[5]", "value": "observed"}, {"measurement": "metabolite of Compound 1 observed in human hepatocyte incubations", "setting": "[5]; listed as m/z 751b", "value": "most abundant metabolites"}, {"measurement": "metabolite of Compound 1 observed in human Hepatopack system", "setting": "[6]", "value": "most abundant metabolites"}, {"measurement": "detected in rat plasma", "setting": "[7]", "value": "observed"}, {"measurement": "detected in rat plasma", "setting": "[7]; listed as m/z 751b", "value": "detected"}, {"measurement": "detected in rat bile", "setting": "[8]", "value": "observed"}, {"measurement": "detected in rat bile", "setting": "[8]; listed as m/z 751b", "value": "detected"}, {"measurement": "EC50", "setting": "[9]", "value": 170, "unit": "nM"}]}]}
